Measurements from ChEMBL document CHEMBL1152257, “New diterpenoids and the bioactivity of Erythrophleum fordii” (Bioorg Med Chem, 2008).

Legend:
BV-2 = assay: Inhibition of NADPH oxidase in LPS-induced mouse BV2 cells assessed as NOX-dependent ROS production at 50 uM; format: cell-based
[1] = biological target: T1, Nitric oxide synthase, inducible (Mus musculus, UniProt P29477); assay: Inhibition of iNOS-mediated NO production in LPS-induced mouse BV2 cells; format: cell-based, BV-2
T1 sequence (P29477 whole entry): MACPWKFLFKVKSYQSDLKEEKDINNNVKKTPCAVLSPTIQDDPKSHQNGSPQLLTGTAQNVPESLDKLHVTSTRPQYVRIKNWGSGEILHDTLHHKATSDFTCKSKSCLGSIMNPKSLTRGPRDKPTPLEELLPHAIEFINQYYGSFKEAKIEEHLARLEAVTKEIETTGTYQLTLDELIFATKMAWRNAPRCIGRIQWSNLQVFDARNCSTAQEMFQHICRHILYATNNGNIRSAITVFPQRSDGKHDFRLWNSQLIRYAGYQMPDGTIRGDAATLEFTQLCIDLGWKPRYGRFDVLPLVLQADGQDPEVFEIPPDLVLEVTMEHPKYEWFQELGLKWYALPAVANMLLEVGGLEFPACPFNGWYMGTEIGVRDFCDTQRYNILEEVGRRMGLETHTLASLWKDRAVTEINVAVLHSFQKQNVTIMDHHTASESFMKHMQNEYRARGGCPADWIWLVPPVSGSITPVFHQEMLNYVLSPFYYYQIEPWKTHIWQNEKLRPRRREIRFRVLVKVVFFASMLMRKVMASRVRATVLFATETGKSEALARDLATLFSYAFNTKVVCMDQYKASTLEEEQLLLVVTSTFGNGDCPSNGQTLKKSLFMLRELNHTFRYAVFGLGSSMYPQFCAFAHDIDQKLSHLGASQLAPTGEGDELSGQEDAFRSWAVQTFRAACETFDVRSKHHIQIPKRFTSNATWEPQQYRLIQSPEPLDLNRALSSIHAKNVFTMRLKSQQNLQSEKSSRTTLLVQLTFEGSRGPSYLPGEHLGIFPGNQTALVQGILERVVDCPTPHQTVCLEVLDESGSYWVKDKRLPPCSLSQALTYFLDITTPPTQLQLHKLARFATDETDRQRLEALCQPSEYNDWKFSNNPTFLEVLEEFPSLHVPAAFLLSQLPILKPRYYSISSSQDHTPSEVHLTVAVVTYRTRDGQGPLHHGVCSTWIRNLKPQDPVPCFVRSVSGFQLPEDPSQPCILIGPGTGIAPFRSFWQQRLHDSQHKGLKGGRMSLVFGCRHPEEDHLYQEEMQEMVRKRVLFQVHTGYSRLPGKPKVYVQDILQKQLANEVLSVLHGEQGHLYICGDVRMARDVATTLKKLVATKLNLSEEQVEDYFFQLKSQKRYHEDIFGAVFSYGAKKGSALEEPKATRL

[2] = test system: Radical scavenging activity; assay: Antioxidant activity assessed as DPPH radical scavenging activity at 50 uM; format: functional

Row | SMILES | inhibition (BV-2) [%] | IC50 [1] [µM] | Activity [2] [%]
1 | C[C@@H]1[C@@H](O)CC[C@]2(C)[C@H]3CC/C(=C\C(=O)O)[C@H](C)[C@@H]3[C@@H](O)C(=O)[C@@H]12 [NORERYTHROFORDIN A] | 8.6 | > 50 | 
2 | CC[C@H](CC[C@@H](C)[C@H]1CC[C@H]2[C@@H]3[C@@H](O)C=C4C[C@@H](O)CC[C@]4(C)[C@H]3CC[C@]12C)C(C)C | 17.1 | > 50 | 
3 | O=C(O)c1cc(O)c(O)c(O)c1 [GALLIC ACID] | 21.5 | > 50 | 85.6
4 | CC(=O)O[C@H]1CC[C@@H]2C(=CC[C@H]3[C@@]2(C)CC[C@@]2(C)[C@@H]4CC(C)(C)CC[C@]4(C)CC[C@]32C)C1(C)C [GLUTINOL ACETATE] | 10.8 | > 50 | 
5 | CO[C@H]1[C@H](O)[C@@H](O)[C@@H](O)[C@H](O)[C@@H]1O [METHYLINOSITOL] | 16.5 | > 50 | 
6 | Cc1c(C)c2c(c(C)c1O)CCC(C)(C(=O)O)O2 (stereo unspecified) |  |  | 85.7
7 | CC1(C)CC[C@]2(C)CC=C3[C@]4(C)CC[C@H]5C(C)(C)C(=O)CC[C@]5(C)[C@H]4CC[C@@]3(C)[C@@H]2C1 [TARAXERONE] | 5.2 | 46.5 | 
8 | CC(=O)O[C@H]1CC[C@]2(C)[C@H]3CC=C4[C@@H]5CC(C)(C)CC[C@]5(C)CC[C@@]4(C)[C@]3(C)CC[C@H]2C1(C)C [beta-AMYRIN ACETATE] | 9.2 | > 50 | 
9 | CC1(C)CC[C@]2(C)CC[C@]3(C)[C@H]4CC=C5[C@@H](CCC(=O)C5(C)C)[C@]4(C)CC[C@@]3(C)[C@@H]2C1 [GLUTINONE] | 6.6 | > 50 | 
10 | CC[C@H](CC[C@@H](C)[C@H]1CC[C@H]2[C@@H]3C[C@@H](O)C4=C[C@@H](O)CC[C@]4(C)[C@H]3CC[C@]12C)C(C)C | 1.6 | > 50 | 
11 | CC1(C)CC[C@]2(C)CC[C@]3(C)C(=CC[C@@H]4[C@@]5(C)CCC(=O)C(C)(C)[C@@H]5CC[C@]43C)[C@@H]2C1 | 0 | > 50 | 
12 | c1ccc2c(c1)[I+]c1ccccc1-2 | 85.1 |  | 
13 | C=CC(C)(C)c1[nH]c2c(CC=C(C)C)cc(CC=C(C)C)cc2c1C[C@@H]1NC(=O)[C@H](C)NC1=O [ECHINULIN] | 8.8 | > 50 | 
14 | CC[C@H](/C=C/[C@@H](C)[C@H]1CC[C@H]2C3=CC[C@H]4C[C@@H](O)CC[C@]4(C)[C@H]3CC[C@]12C)C(C)C | 8.7 | > 50 | 
15 | CC1(C)CC[C@]2(C)CC[C@]3(C)[C@H]4CC=C5[C@@H](CC[C@H](O)C5(C)C)[C@]4(C)CC[C@@]3(C)[C@@H]2C1 [GLUTINOL] | 19.2 | > 50 | 
16 | C[C@H]1C(=O)CC[C@@H]2[C@]1(C)CC[C@H]1[C@@]2(C)CC[C@@]2(C)[C@@H]3CC(C)(C)CC[C@]3(C)CC[C@]12C [FRIEDELINE] | 4.2 | > 50 | 
17 | C[C@@H]1O[C@@H](Oc2c(-c3ccc(O)cc3)oc3cc(O)cc(O)c3c2=O)[C@H](O)[C@H](O)[C@H]1O | 6 |  | 
18 | CC1(C)CC[C@]2(C)CC=C3[C@]4(C)CC[C@H]5C(C)(C)[C@@H](O)CC[C@]5(C)[C@H]4CC[C@@]3(C)[C@@H]2C1 [TARAXEROL] | 11.6 | 24.2 | 
19 | C[C@@H](O)/C=C/[C@@]1(O)C(C)(C)C[C@H](O)C[C@@]1(C)O | 25.2 | > 50 | 
